Measurements from a melting point compilation (Tetko et al.; mined from patent text by program, amines drawn as free bases though some values may be those of a salt).

SMILES | melting point
CC(C)C(=O)NCC(=NNC(N)=S)c1ccccc1 | 183 to 185 °C
Cc1sc2c(c1C(=O)CCCCl)C(=O)NCCC2 | 113 to 115 °C
CCOC(=O)Cc1c(C(=O)OCC)c(C)cn1C | 71 to 72 °C
CCOC(=O)C1=C(C)NC(O)(C(Cl)(Cl)Cl)C(C(=O)OCC)C1c1cccc([N+](=O)[O-])c1 (stereo unspecified) | 125 to 126 °C
Nc1ccc(O)cc1/C=C/C(=O)CC(=O)/C=C/c1ccc(O)cc1 | 186 to 192 °C
CNc1nc(Nc2ccc(Cl)c(Cl)c2)ncc1NC(=O)Oc1ccccc1 | 306 °C
ClC=C(Cl)n1c2ccccc2c2ccccc21 | 51 to 53 °C
CC1NC(=O)NN=C1c1ccc(N(C)C)cc1 (stereo unspecified) | 255 to 261 °C
CN1C(=O)CC2(Cc3cc4ccccc4n3C2)C1=O (stereo unspecified) | 154 to 156 °C
O=[N+]([O-])c1cc(Cl)c([N+](=O)[O-])c(Cl)c1 | 109 to 112 °C
Nc1cc(OCc2ccccc2)nc(N)n1 | 195 °C
Cc1ccc(S(=O)(=O)CC(=O)C(C)(C)C)cc1 | 119 to 122 °C
N#CC(=CC(=O)c1ccccc1)C(=O)O | 74 to 75 °C
OC(c1ccccc1)(c1ccc(Cl)cc1)c1nccn1Cc1ccccc1 (stereo unspecified) | 174 to 175 °C
N#Cc1ccc2c3c(cc([N+](=O)[O-])c2c1)NCC3CCl (stereo unspecified) | 237 to 238 °C
CCCCCCCCCCCCCCN(C(=O)CCCCCCCCCCC)C1(N)OC(CO)C(O)C(O)C1C(=O)C(N)C(=O)C(C)N (stereo unspecified) | 115 to 117 °C
CNC(=O)COc1ccc(C(=O)CN2CCN(c3ccncc3)CC2)cc1 | 169 to 171 °C
CC(C)c1cccc(C(C)C)c1NC(=O)CN1CCCN(CCCSc2nc3ccccc3o2)CC1 | 109 to 111 °C
O=c1[nH]c(=O)n(C2OC(CBr)C(O)C2O)cc1C=CBr (stereo unspecified) | 201 °C
Nc1ncc2c(n1)-c1ccc(Cl)cc1C(c1ccccc1Cl)=NC2 | 240 to 241 °C
CSc1n[nH]c(-c2cc(C(C)(C)C)c(O)c(C(C)(C)C)c2)n1 | 271 to 272 °C
CCOc1cccc2cc(C(=O)C34CC5CC(CC(C5)C3)C4)oc12 | 84 to 86 °C
Cn1cncc1C(O)(c1ccc(Cl)cc1)c1ccc2c(c1)C(c1cccc(Cl)c1)Nc1nnnn1-2 (stereo unspecified) | 212 °C
O=C1c2cccc(F)c2-n2c1nc1ccccc1c2=O | 264 to 267 °C
COc1ccc2c(c1)CCC(C1CCC(O)C1(C)CC(C)(C)O)C2 (stereo unspecified) | 123 to 125 °C
CC(C)(C)OC(=O)NC1CCN(c2ccc(C(=O)O)cc2)CC1 | > 300 °C

SMILES | melting point
O=C(c1cccnc1)c1cc(-c2ccccc2)c(N2CCOCC2)s1 | 180 °C
O=C(O)c1cnc(-c2nnn[nH]2)cc1C1CCCCC1 | 278 °C
CC(=O)OC1CSC(Oc2ccc(C#N)nc2C)C(OC(C)=O)C1OC(C)=O (stereo unspecified) | 128 to 131 °C
CCOc1ccc(-c2ncc[nH]2)cc1 | 168 to 169 °C
CCOC(=O)COc1cc2cc(CC(C)C)sc2c(Cl)c1Cl | 75 to 76 °C
O=C(O)c1cccc(-n2cnc3cc(-c4ccoc4)ccc32)c1 | 272 to 274 °C
Nc1cc(N)c(-c2ccc([N+](=O)[O-])cc2-c2cccc(Cl)c2Cl)cn1 | 237 to 239 °C
NC(=O)C=Cc1cccc(Cl)c1 | 180 °C
Nc1cc(C(=O)O)cc(S(N)(=O)=O)c1Oc1cccc(Cl)c1 | 239 to 240 °C
O=C(O)C1Cc2c([nH]c3ccccc23)CN1C(=S)SCc1ccc([N+](=O)[O-])cc1 (stereo unspecified) | 194 to 195 °C
Cn1ncc(/C=C/C(=O)Nc2ccc(CC(C)(C)O)cc2)c1-c1ccc(F)cc1 | 188 to 189 °C
O=Cc1cc(O)ccc1-c1cccc(C(F)(F)F)c1 | 100 to 102 °C
CC(C)(C)OC(=O)N[C@@H](CC(N)=O)C(N)=O | 190 to 192 °C
Cc1oc(-c2ccccc2)nc1COc1ccc(COc2ccc3ccccc3c2CC#N)cc1 | 178 to 179 °C
O=[N+]([O-])c1ccc2c(c1)OP(=O)(N(CCCl)CCCl)NC2 (stereo unspecified) | 123 to 126 °C
COc1ccc(-n2[nH]c(Cc3c(C)n(C(=O)c4ccc(Cl)cc4)c4ccc(OC)cc34)cc2=O)cc1 | 101 to 103 °C
Cc1ccccc1C(=O)Nc1ccc(C(=O)N2CCCC(OCC(=O)N(C)C)c3ccccc32)cc1 (stereo unspecified) | 203 to 204 °C
CCCCCCCCCCCCCCCCCC(=O)NCC(O)C(C)(O)CCCC(C)CCCC(C)CCCC(C)C (stereo unspecified) | 47 to 48 °C
CC(=O)c1csc(C(=O)C2C(=O)N(C(N)=O)c3ccc(Cl)cc32)c1 (stereo unspecified) | 230 to 233 °C
Cn1nc(-c2ccc(F)cc2)c(-c2ccncc2)c1CCCc1ccc([N+](=O)[O-])cc1 | 129 to 132 °C
OC1CSC(Oc2cnc(-c3ccc(F)nc3)c(F)c2)C(O)C1O (stereo unspecified) | 184 °C
COc1cccc(-c2cc(C3CNC(=O)C3)ccc2OC)c1 (stereo unspecified) | 137 to 139 °C
NC(=O)NCc1cc(Cl)cc(-c2csc(N=C(N)N)n2)n1 | > 300 °C
O=[N+]([O-])c1oc2ccc(Cc3nnn[nH]3)cc2c1-c1ccccc1 | 245 to 247 °C
CC1(C)OC[C@@H](CNc2ccc3cc(OCC4CC4)ccc3c2)O1 | 108 to 109 °C
COc1c(Cl)ccc(-c2cc(N)c(Cl)c(C(=O)N(C)OC)n2)c1F | 159 to 162 °C

SMILES | melting point
CCS(=O)(=O)Nc1cccc2c1N=C(c1ccc(-n3c(C)nc4cnccc43)cc1)CC(=O)N2 | 258 to 260 °C
Cc1c(Br)cccc1N1CCn2c(cc3ccccc32)C1=O | 178 to 180 °C
NC(=NO)c1ccc(-c2n[nH]c3c2Cc2ccccc2-3)cc1 | > 300 °C
O=C(O)[C@H]1CCCN1C(=O)Cc1ccc(CC(=O)N2CCC[C@@H]2C(=O)O)cc1 | 210 to 214 °C
CCCCN(CCCC)CCCOc1ccc(S(=O)(=O)c2ccccc2CC)cc1 | 80 °C
COC(=O)C1Oc2ccccc2C(C)c2cc(Cl)ccc2O1 (stereo unspecified) | 124 to 136 °C
CN1C2CCC(NC(=O)c3n[nH]c4ccccc34)C1CC2 (stereo unspecified) | 222 to 224 °C
CC(CSC(=O)c1ccccc1)C(=O)N1C(C(=O)O)CC2CCCCC21 (stereo unspecified) | 184 to 186 °C
COc1cc2c(c3c1OC(C)(C)C3)C(c1cccc(-c3ccc(N)nc3)c1)=NC(C)(C)C2 | 165 to 168 °C
CCCN=C(N)Nc1ccnc(SC)n1 | 177 to 178 °C
O=S(=O)(c1cccc2ccccc12)c1n[nH]c2ccc(OC3CCCNC3)cc12 (stereo unspecified) | 178 to 180 °C
Cc1[nH]c2ccccc2c1CCCN1CCC(O)(Cc2ccccc2)CC1 | 132 to 134 °C
Cc1cnc2c(Br)cnn2c1-c1cccnc1 | 166 to 168 °C
CCOC(=O)c1c(O)c2ccccc2n(Cc2ccc(F)cc2)c1=O | 116 to 120 °C
CCCCc1nc2ccccc2c(=O)[nH]1 | 153 to 155 °C
N#Cc1c[nH]cc1C(F)(F)F | 96 to 97 °C
O=S(=O)(c1ccc(N2CCCCCC2)cc1)N1CC(O)CC1=S (stereo unspecified) | 138 to 139 °C
CCN(CC)C(=O)c1ccc(C)c(-c2nc(N(C)CCCN(C)C)nc3c2CNC(=O)N3c2c(F)cccc2F)c1 | 106 to 108 °C
COc1ccc(C(=O)c2ccc(Oc3ccccc3)cc2)cc1 | 118 to 119 °C
COC(=O)C(Br)c1ccc(OCCOc2ccc(Cl)cc2)cc1 (stereo unspecified) | 76 to 80 °C
O=C1C=C(c2ccc(OC(F)(F)F)cc2)CO1 | 122 to 123 °C
N#Cc1ccc(NC(=O)CCc2ccc(O)cc2)cc1 | 169 to 172 °C
CN1CCN(c2ccccc2C=CC(=O)NCc2ccc(Cl)cc2)CC1 | 193 to 194 °C
COC(=O)c1cc(O)c2ccc(OCc3ccccc3)cc2c1 | 179 to 180 °C
O=S(Cc1ccccc1NC1CCCC1)c1nc2ncccc2[nH]1 (stereo unspecified) | 134 °C
CCOC(=O)C1Cc2c(OC)ccc(OC)c2CO1 (stereo unspecified) | 59.8 °C

SMILES | melting point
COc1cc(N)ccc1NC1=CC(=O)C(N)=CC1=O | 267 °C
CCOc1cc(OCCCc2cn(-c3ccc(C(F)(F)F)cn3)nc2O)ccc1CCC(=O)OC | 147 to 148 °C
CC1(C)OC(=C(C#N)C#N)C(C#N)=C1c1ccc(-n2cc(-c3ccccc3)nn2)cc1 | 280 °C
CCOCc1nc2c(N)nc3cccnc3c2n1C1(OC)CCCCC1 | 160 to 161 °C
O=C(CN(C(=O)OCc1ccccc1)c1ccc(Cl)cc1)NCCc1ccc(OCc2ccccc2)c(OCc2ccccc2)c1 | 114 to 116 °C
CS(=O)Cc1nnc(-c2ccc3occ(-c4cccc(OC(F)(F)F)c4)c3c2)o1 (stereo unspecified) | 138 to 139 °C
Cc1ccccc1N1CCN(CC(O)COc2cccc3c2CCCC3=O)CC1 (stereo unspecified) | 183 to 184 °C
CC(=O)NC[C@H]1CN(c2ccc(N3CCC(n4nnc(N5CCOCC5)n4)CC3)c(F)c2)C(=O)O1 | 210 to 214 °C
O=C(NCCO)/C(=C/c1ccc(OC2CC2)cc1)NC(=O)c1ccc(OCCc2ccc(Cl)cc2)cc1 | 66 to 69 °C
CCOC(=O)c1ccc(-c2cn3cc(C)ccc3n2)cc1 | 228 to 230 °C
OCc1conc1-c1ccc(F)c(Cl)c1 | 87 to 88 °C
O=C1CCc2c(Cl)sc(Cl)c21 | 168 to 170 °C
CC12CC3OC3CC1CCC1C2CCC2(C)C(O)C(N3CCC(O)CC3)CC12 (stereo unspecified) | 204 to 206 °C
CC(COc1ccc(O)c(C(N)=O)c1)NCC(O)c1ccccn1 (stereo unspecified) | 147 to 165 °C
CC1SC(=O)NN=C1c1ccc(N2CCC(N)CC2)c([N+](=O)[O-])c1 (stereo unspecified) | 154 to 157 °C
COc1cccc(N(C)C(=O)c2cnc(-c3cccc(C)c3)s2)c1 | 88 °C
O=C(O)COc1cccc(CCc2nc(-c3ccccc3)c(-c3ccccc3)[nH]2)c1 | 244 to 246 °C
CCOc1ccc2nc3ccc(C(=O)O)cn3c(=O)c2c1 | 260 to 265 °C
CCc1ccc(S(=O)(=O)Nc2ccc(Cl)cc2)cc1 | 120 to 122 °C
CCCCOC(=O)COc1ccc(C(=O)Nc2cccc(Cl)c2Cl)cc1 | 132 to 136 °C
O=C(Nc1n[nH]c(=S)s1)N[C@@H](Cc1ccccc1)C(=O)N1CCOCC1 | 213 to 216 °C
COC(=O)c1ccc(OC)c(NC(=O)C[C@H]2O[C@H](c3cccc(OC)c3OC)c3cc(Cl)ccc3N(CC(C)(C)COC(C)=O)C2=O)c1 | 138 to 140 °C
COc1ccc2c(c1)C(OC(C)C)=C(C(N)=O)S2=O (stereo unspecified) | 168 to 170 °C
